In publication PMC3950855 (British Journal of Cancer, 2014):
“And” between values parts separate entries of the source, which are not always exact repeats. Identical values can stand only once. Counter-ions that a name gives are not always drawn.

Tests used:
[1] = test system: GIST; details: cited from earlier work; for median time to progression / objective remissions: salvage treatment, ref Demetri et al, 2006, 2012
[2] = Plasma pharmacokinetics by LC/PDA; details: for IM trough levels (mean) / Cmax: 400 mg once daily; for Cmax: human, in vivo, im, 400 mg, IM Cmax (mean)
[3] = ref Verweij et al, 2004, Blanke et al, 2008a, 2008b

CCN(CC)CCNC(=O)c1c(C)[nH]c(/C=C2\C(=O)Nc3ccc(F)cc32)c1C [sunitinib]
median time to progression [1]: ~6 months | objective remissions [1]: 7%

CNC(=O)c1cc(Oc2ccc(NC(=O)Nc3ccc(Cl)c(C(F)(F)F)c3)c(F)c2)ccn1 [regorafenib]
median time to progression [1]: ~6 months | objective remissions [1]: 4.5%

Cc1ccc(NC(=O)c2ccc(CN3CCN(C)CC3)cc2)cc1Nc1nccc(-c2cccnc2)n1 [IM, Imatinib mesylate]
IM trough levels (mean) ([2]; with pan): 2.2 µM | IM trough levels (mean) ([2]; with pan (combination therapy), ± s.e.m.): 1290 ng ml^−1 and 1290 (±440) ng ml^−1 | IM trough levels (mean) ([2]; without pan): 1.8 µM | IM trough levels (mean) ([2]; without pan (run-in), ± s.e.m.): 1085 ng ml^−1 and 1085 (±480) ng ml^−1 | increase of the mean Cmax of IM ([2]; combination with panobinostat vs run-in, not statistically significant): 23% | Cmax ([2]; with pan): 4.3 µM | Cmax ([2]; without pan (7-day run-in), ± s.e.m.): 2070 ng/mL | median overall survival [1, 3]: 5 years | patients with long-lasting responses [1, 3]: 82–86%

Cc1ccc(NC(=O)c2ccc(CN3CCNCC3)cc2)cc1Nc1nccc(-c2cccnc2)n1 [desmethyl-IM, N-desmethyl-IM]
actual plasma levels of desmethyl-IM vs prediction ([2]; during combination with panobinostat): as predicted
